Literature values as cited in US20210330638A1, “NANO-PENETRATIVE CANNABINOID OIL BLENDS AND COMPOSITIONS AND METHODS OF FORMULATION THEREOF” (Theragun, Inc., priority 2020, published 2021).

Conditions: in vivo

CC1=CCC2CC1C2(C)C (stereo not drawn) [a-Pinene, alpha-pinene]
pulmonary uptake: 60%
